# Measurements reported in patent US20110098180A1, “Herbicide-Resistant Plants, And Polynucleotides And Methods For Providing Same” (United States Department of Agriculture, priority 2002, published 2011).
# Columns and labels:
# Assay in all cases: Cross resistance to bleaching herbicides, in vitro PDS inhibition, non-His-tagged (Table 2)
# [1] = molecular target: hydrilla PDS Arg^304 → Cysteine (Hydrilla verticillata, UniProt Q66PY0, R304C); format: biochemical; details: Cysteine at 304; construct in frame with LacZalpha-ccdB, non-His-tagged; read-out: I50
# Experimental: (§1) The expression constructs in Table 2 were derived from an original clone of the susceptible PDS gene from Hydrilla and then the Arg^304 was mutated to the listed amino acid. Expression was under the control of the lac promoter but in frame with the initiation codon of the LacZalpha-ccdB gene in the pCR4-TOPO vector (Invitrogen Inc., CA, Cat. #K4575-01).
# (§2) All mutagenesis was performed, unless stated otherwise, using the TOPO-vector containing the wildtype (H4) PDS-sequence, which was extracted from an overnight culture with the Qiagen Plasmid Prep Kit as described above. The amount of the extracted plasmid was diluted to 10 ng/μl and used as template in a mutagenesis-procedure using the QuikChange Site-directed Mutagenesis Kit (Stratagene, Calif., #200518). The design of the mutagenesis-primers was conducted according to the manufacturers protocol to enable the specific change of Arg^304-codon to code for the desired amino acid. Primers (purchased from MWG-Biotech) and their introduced amino acid change are listed below with the changed codon underlined:
# (§3) The reactions were performed according to the manufacturers protocol. Reactions were set up in MicroAmp-tubes on ice with 38 μl ddH2O, 5 μl 10× reaction buffer, 2 μl plasmid (10 ng/μl), 1.25 μl forward-mutagenesis primer (100 ng/μl), 1.25 μl of reverse mutagenesis primer (100 ng/μl), 1 μl dNTP-mix and 1 μl PfuTurboDNA polymerase (2.5 U/μl). The reactions were placed in a PE 9700 thermal cycler and heated to 95° C. for 30 sec followed by 12 rounds at 95° C. for 30 sec, 55° C. for 1 min and 68° C. for 12 min. The PCR was followed by a DpnI-digestion and transformation in XL1-Blue supercompetent cells as described in the manual. 4-6 resulting colonies were grown overnight in LB-medium with kanamycin and plasmid DNA was isolated as described above. The plasmid was used as template for sequencing with M13 and internal PDS-primers as described above on a LiCOR-system. Sequences were assembled and analyzed using Seqman. Introduced mutations were identified and plasmids carrying the desired mutation(s) were transferred into competent TOP10-cells, using the transformation protocol from the TOPO TA Cloning Kit. Resulting colonies were grown overnight in Wu-broth with kanamycin, aliquoted and stored at −80° C. until further use. 1 ml of Wu-cultures was used to start 1-L LB-cultures with kanamycin as described before, to express active PDS-enzyme for testing as described.
# (§4) Phytoene desaturase activity and its inhibition by herbicides was determined using an in vitro system using components derived from the in vivo production of phytoene and phytoene desaturase proteins. All mutations described in Examples 3 and 4 were tested. […] The clones were used for the heterologous expression of Hydrilla-PDS-enzyme. In particular, bacterial cultures were grown from single colonies overnight in Wu-broth (6.27 g/L K2HPO4, 1.8 g/L KH2PO4, 0.5 g/L Na-citrate, 0.9 g/L (NH4)2SO4, 10 g/L tryptone, 5 g/L yeast extract, 10 g/L NaCl, 44 ml/L glycerol, 0.1 mM MgSO4, pH 7.2) with kanamycin. 1-mL was aliquoted in centrifuge tube and stored at −80° C. For expression, 1 L LB-medium with kanamycin was inoculated with 1-mL Wu-culture and grown for 24 h at 37° C. to stationary phase with shaking at 200 rpm. The cells were collected by centrifugation at 2000×g. All of the following steps were done at 4° C. unless otherwise noted. Active soluble PDS enzyme was extracted by lysing the transformed E. coli cells using a French Press at 20,000 psi in assay buffer consisting of 100 mM Tris-HCl, pH 7.2, 10 mM magnesium-chloride, 0.1 mM NADP, 0.1 mM FAD, 10 mM cysteine, 5 mM DTT, 1 mM aminocaproic acid, and 1 μg/ml leupeptin. The soluble fraction containing PDS activity was obtained by centrifugation for 10 min at 1200×g. After 24 h they were centrifuged down and used in PDS enzyme activity assays as described below.
# [2] = system: hydrilla PDS Arg^304 → Histidine; format: biochemical, Hydrilla verticillata; details: Histidine at 304 relative to Arginine; Table 2
# Experimental: as §1, §2, §3, §4
# [3] = system: hydrilla PDS Arg^304 → Cysteine; format: biochemical, Hydrilla verticillata; details: Cysteine at 304 relative to Arginine; Table 2
# Experimental: as §1, §2, §3, §4
# [4] = molecular target: hydrilla PDS position 304 Arginine (wildtype) (Hydrilla verticillata, UniProt Q66PY0); format: biochemical; details: for R/S: Arginine at 304 (reference), Table 2; for IC50: Arginine at 304, construct in frame with LacZalpha-ccdB, non-His-tagged, read-out: I50
# Experimental: as §1, §2, §3, §4
# [5] = system: hydrilla PDS Arg^304 → Serine; format: biochemical, Hydrilla verticillata; details: Serine at 304 relative to Arginine; Table 2
# Experimental: as §1, §2, §3, §4
# [6] = molecular target: hydrilla PDS Arg^304 → Histidine (Hydrilla verticillata, UniProt Q66PY0, R304H); format: biochemical; details: Histidine at 304; construct in frame with LacZalpha-ccdB, non-His-tagged; read-out: I50
# Experimental: as §1, §2, §3, §4
# [7] = molecular target: Hydrilla PDS Arg^304 → Threonine (Hydrilla verticillata, UniProt Q66PY0, R304T); format: biochemical; details: Threonine at 304; construct in frame with LacZalpha-ccdB, non-His-tagged; read-out: I50
# Experimental: as §1, §2, §3, §4
# [8] = system: Hydrilla PDS Arg^304 → Threonine; format: biochemical, Hydrilla verticillata; details: Threonine at 304 relative to Arginine; Table 2
# Experimental: as §1, §2, §3, §4
# Sequence of hydrilla PDS Arg^304 → Cysteine (Hydrilla verticillata, UniProt Q66PY0, R304C) (Q66PY0 1-580 R304C): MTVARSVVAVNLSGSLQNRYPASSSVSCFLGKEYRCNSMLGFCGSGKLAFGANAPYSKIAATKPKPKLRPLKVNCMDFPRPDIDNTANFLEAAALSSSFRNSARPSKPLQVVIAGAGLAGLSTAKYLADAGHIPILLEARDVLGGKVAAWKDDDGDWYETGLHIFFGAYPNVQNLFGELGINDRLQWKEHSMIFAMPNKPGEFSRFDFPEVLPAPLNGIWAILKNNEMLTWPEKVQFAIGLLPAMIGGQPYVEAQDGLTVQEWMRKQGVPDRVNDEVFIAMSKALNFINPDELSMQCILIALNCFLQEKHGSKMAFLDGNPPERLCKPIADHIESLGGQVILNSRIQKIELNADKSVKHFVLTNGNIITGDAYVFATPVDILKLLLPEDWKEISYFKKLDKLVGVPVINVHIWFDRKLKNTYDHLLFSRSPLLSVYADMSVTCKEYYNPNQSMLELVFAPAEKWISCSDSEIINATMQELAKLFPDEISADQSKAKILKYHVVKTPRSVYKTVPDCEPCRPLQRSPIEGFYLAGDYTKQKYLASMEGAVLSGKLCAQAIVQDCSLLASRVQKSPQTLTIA
# Sequence of hydrilla PDS position 304 Arginine (wildtype) (Q66PY0 1-580): as the sequence (Q66PY0 1-580 R304C) above, with C304R counted along it
# Sequence of hydrilla PDS Arg^304 → Histidine (Hydrilla verticillata, UniProt Q66PY0, R304H) (Q66PY0 1-580 R304H): as the sequence (Q66PY0 1-580 R304C) above, with C304H counted along it
# Sequence of Hydrilla PDS Arg^304 → Threonine (Hydrilla verticillata, UniProt Q66PY0, R304T) (Q66PY0 1-580 R304T): as the sequence (Q66PY0 1-580 R304C) above, with C304T counted along it
Compound,IC50 [1] [µM],R/S [2],R/S [3],R/S [4],IC50 [4] [µM],R/S [5],IC50 [6] [µM],IC50 [7] [µM],R/S [8]
CCC(Oc1ccc(F)c(C(F)(F)F)c1)C(=O)NCc1ccccc1 (stereo not drawn) [Beflubutamid],3.5,0.7,0.8,1,4.3,0.6,3,1.2,0.3
O=C(Nc1ccc(F)cc1F)c1cccnc1Oc1cccc(C(F)(F)F)c1 [Diflufenican],2.1,0.4,0.4,1,5.8,0.2,2,1,0.2
O=C1C(Cl)C(CCl)CN1c1cccc(C(F)(F)F)c1 (stereo not drawn) [Fluorochloridone],44.3,1.1,3.6,1,12.2,1.9,14,52,4.3
CNC1=C(c2cccc(C(F)(F)F)c2)C(=O)C(c2ccccc2)O1 (stereo not drawn) [Flurtamone],5.3,1.2,1.9,1,2.8,2.1,3.3,8.1,2.9
CNc1cnn(-c2cccc(C(F)(F)F)c2)c(=O)c1Cl [Norflurazon],89.4,1.6,28.8,–,3.1,17.7,5,161,52.0
"O=C(Nc1ccc(F)cc1)c1cccc(Oc2cccc(C(F)(F)F)c2)n1 [Piconilafen, Picolinafen]",2.4,0.5,0.4,–,5.6,0.4,3,2.7,0.5
Fluridone,–,2.8,3.2,1,–,5.5,–,–,10.0
